Reference: patent US9375497B2, “[F-18]-labeled L-glutamic acid, [F-18]-labeled L-glutamine, derivatives thereof and use thereof and processes for their preparation” (BAYER SCHERING PHARMA AKTIENGESELLSCHAFT, priority 2006, dated 2016)

How the values were obtained:
[1] = test system: murine F9 teratocarcinoma model in NMRI nude mice; assay: Tumor enrichment and tissue distribution, F9 teratocarcinoma model; settings: for Tumor/tissue quotient, Blood / Tumor/tissue quotient, Brain / Tumor/tissue quotient, Fat / Tumor/tissue quotient, Heart / Tumor/tissue quotient, Intestine / Tumor/tissue quotient, Kidney / Tumor/tissue quotient, Liver / Tumor/tissue quotient, Lung / Tumor/tissue quotient, Muscle / Tumor/tissue quotient, Ovary / Tumor/tissue quotient, Skin / Tumor/tissue quotient, Spleen / Tumor/tissue quotient, Stomach / Tumor/tissue quotient, Uterus: single i.v.; for Tissue uptake, Blood / Tissue uptake, Brain / Tissue uptake, Fat / Tissue uptake, Heart / Tissue uptake, Intestine / Tissue uptake, Kidney / Tissue uptake, Liver / Tissue uptake, Lung / Tissue uptake, Muscle / Tissue uptake, Ovary / Tissue uptake, Skin / Tissue uptake, Spleen / Tissue uptake, Stomach / Tissue uptake, Tumor / Tissue uptake, Uterus: single i.v. 370 kBq
Protocol: For the evaluation of the tumor enrichment and the tissue distribution in experimental animals, [^18F]-4-glutamic acid was tested in a murine F9 teratocarcinoma model in NMRI nude mice and a murine B16F1 melanoma model in C57BI6 mice.
For this, 1×10^6 cells (F9) or 5×10^5 cells (B16F1) respectively were suspended in 100 μl of phosphate-buffered physiological saline solution and inoculated subcutaneously into the right, rear flank of the corresponding experimental animal species (NMRI for F9 and 057-BI6 for B16F1) (Berndorff et al. Clin. Cancer Res. 2005, 11, 2005). […] [^18F]-4-Glutamic acid (370 kBq, in 100 μl of physiological saline solution) was administered intravenously to the tail vein. […]

[2] = test system: HT29 (colonic carcinoma) cells; assay: Tumor cell uptake in HT29 cells; type: cell-based, human; settings: compared to [^18F]FDG
Protocol: For the evaluation of the tumor cell uptake of [^18F]glutamic acid, cell uptake experiments were carried out in human A549 (non-small-cell bronchial carcinoma) and HT29 (colonic carcinoma) cells. The tumor cell uptake of the glutamic acid derivatives was compared to
[^18F]FDG (gold standard for oncological PET investigations).

NC(CC([18F])C(=O)O)C(=O)O (stereo not drawn) [[^18F]4-glutamic acid, 4-[F-18]fluoroglutamic acid]
Tumor/tissue quotient, Blood ([1]; 0.25 h (times as Table 1)): 1.14
Tumor/tissue quotient, Brain ([1]; 0.25 h (times as Table 1)): 5.6
Tumor/tissue quotient, Fat ([1]; 0.25 h (times as Table 1)): 5.85
Tumor/tissue quotient, Heart ([1]; 0.25 h (times as Table 1)): 1.01
Tumor/tissue quotient, Intestine ([1]; 0.25 h (times as Table 1)): 1.26
Tumor/tissue quotient, Kidney ([1]; 0.25 h (times as Table 1)): 0.4
Tumor/tissue quotient, Liver ([1]; 0.25 h (times as Table 1)): 0.86
Tumor/tissue quotient, Lung ([1]; 0.25 h (times as Table 1)): 0.57
Tumor/tissue quotient, Muscle ([1]; 0.25 h (times as Table 1)): 1.67
Tumor/tissue quotient, Ovary ([1]; 0.25 h (times as Table 1)): 2.43
Tumor/tissue quotient, Skin ([1]; 0.25 h (times as Table 1)): 1.25
Tumor/tissue quotient, Spleen ([1]; 0.25 h (times as Table 1)): 1.12
Tumor/tissue quotient, Stomach ([1]; 0.25 h (times as Table 1)): 1.12
Tumor/tissue quotient, Uterus ([1]; 0.25 h (times as Table 1)): 1.18
Tissue uptake, Blood ([1]; 0.25 h): 2.51 % dose/g
Tissue uptake, Brain ([1]; 0.25 h): 0.52 % dose/g
Tissue uptake, Fat ([1]; 0.25 h): 0.85 % dose/g
Tissue uptake, Heart ([1]; 0.25 h): 2.86 % dose/g
Tissue uptake, Intestine ([1]; 0.25 h): 2.28 % dose/g
Tissue uptake, Kidney ([1]; 0.25 h): 7.24 % dose/g
Tissue uptake, Liver ([1]; 0.25 h): 3.37 % dose/g
Tissue uptake, Lung ([1]; 0.25 h): 5.08 % dose/g
Tissue uptake, Muscle ([1]; 0.25 h): 1.72 % dose/g
Tissue uptake, Ovary ([1]; 0.25 h): 1.34 % dose/g
Tissue uptake, Skin ([1]; 0.25 h): 2.28 % dose/g
Tissue uptake, Spleen ([1]; 0.25 h): 2.56 % dose/g
Tissue uptake, Stomach ([1]; 0.25 h): 2.56 % dose/g
Tissue uptake, Tumor ([1]; 0.25 h): 2.90 % dose/g
Tissue uptake, Uterus ([1]; 0.25 h): 2.54 % dose/g
Tumor/tissue quotient, Blood ([1]; 1.0 h (times as Table 1)): 3.46
Tumor/tissue quotient, Brain ([1]; 1.0 h (times as Table 1)): 4.2
Tumor/tissue quotient, Fat ([1]; 1.0 h (times as Table 1)): 7.37
Tumor/tissue quotient, Heart ([1]; 1.0 h (times as Table 1)): 2.73
Tumor/tissue quotient, Intestine ([1]; 1.0 h (times as Table 1)): 0.97
Tumor/tissue quotient, Kidney ([1]; 1.0 h (times as Table 1)): 1.38
Tumor/tissue quotient, Liver ([1]; 1.0 h (times as Table 1)): 3.48
Tumor/tissue quotient, Lung ([1]; 1.0 h (times as Table 1)): 1.34
Tumor/tissue quotient, Muscle ([1]; 1.0 h (times as Table 1)): 2.51
Tumor/tissue quotient, Ovary ([1]; 1.0 h (times as Table 1)): 5.05
Tumor/tissue quotient, Skin ([1]; 1.0 h (times as Table 1)): 3.4
Tumor/tissue quotient, Spleen ([1]; 1.0 h (times as Table 1)): 3.22
Tumor/tissue quotient, Stomach ([1]; 1.0 h (times as Table 1)): 2.45
Tumor/tissue quotient, Uterus ([1]; 1.0 h (times as Table 1)): 2.59
Tissue uptake, Blood ([1]; 1.0 h): 0.51 % dose/g
Tissue uptake, Brain ([1]; 1.0 h): 0.43 % dose/g
Tissue uptake, Fat ([1]; 1.0 h): 0.26 % dose/g
Tissue uptake, Heart ([1]; 1.0 h): 0.64 % dose/g
Tissue uptake, Intestine ([1]; 1.0 h): 1.83 % dose/g
Tissue uptake, Kidney ([1]; 1.0 h): 1.30 % dose/g
Tissue uptake, Liver ([1]; 1.0 h): 0.50 % dose/g
Tissue uptake, Lung ([1]; 1.0 h): 1.32 % dose/g
Tissue uptake, Muscle ([1]; 1.0 h): 0.70 % dose/g
Tissue uptake, Ovary ([1]; 1.0 h): 0.41 % dose/g
Tissue uptake, Skin ([1]; 1.0 h): 0.53 % dose/g
Tissue uptake, Spleen ([1]; 1.0 h): 0.54 % dose/g
Tissue uptake, Stomach ([1]; 1.0 h): 1.26 % dose/g
Tissue uptake, Tumor ([1]; 1.0 h): 1.75 % dose/g
Tissue uptake, Uterus ([1]; 1.0 h): 0.72 % dose/g
Tumor/tissue quotient, Blood ([1]; 2.0 h (times as Table 1)): 9.06
Tumor/tissue quotient, Brain ([1]; 2.0 h (times as Table 1)): 7.06
Tumor/tissue quotient, Fat ([1]; 2.0 h (times as Table 1)): 23.67
Tumor/tissue quotient, Heart ([1]; 2.0 h (times as Table 1)): 9.22
Tumor/tissue quotient, Intestine ([1]; 2.0 h (times as Table 1)): 1.54
Tumor/tissue quotient, Kidney ([1]; 2.0 h (times as Table 1)): 5.22
Tumor/tissue quotient, Liver ([1]; 2.0 h (times as Table 1)): 9.23
Tumor/tissue quotient, Lung ([1]; 2.0 h (times as Table 1)): 4.09
Tumor/tissue quotient, Muscle ([1]; 2.0 h (times as Table 1)): 9.5
Tumor/tissue quotient, Ovary ([1]; 2.0 h (times as Table 1)): 17.74
Tumor/tissue quotient, Skin ([1]; 2.0 h (times as Table 1)): 9.4
Tumor/tissue quotient, Spleen ([1]; 2.0 h (times as Table 1)): 18
Tumor/tissue quotient, Stomach ([1]; 2.0 h (times as Table 1)): 6.85
Tumor/tissue quotient, Uterus ([1]; 2.0 h (times as Table 1)): 6.96
Tissue uptake, Blood ([1]; 2.0 h): 0.21 % dose/g
Tissue uptake, Brain ([1]; 2.0 h): 0.27 % dose/g
Tissue uptake, Fat ([1]; 2.0 h): 0.09 % dose/g
Tissue uptake, Heart ([1]; 2.0 h): 0.21 % dose/g
Tissue uptake, Intestine ([1]; 2.0 h): 1.21 % dose/g
Tissue uptake, Kidney ([1]; 2.0 h): 0.37 % dose/g
Tissue uptake, Liver ([1]; 2.0 h): 0.20 % dose/g
Tissue uptake, Lung ([1]; 2.0 h): 0.48 % dose/g
Tissue uptake, Muscle ([1]; 2.0 h): 0.42 % dose/g
Tissue uptake, Ovary ([1]; 2.0 h): 0.12 % dose/g
Tissue uptake, Skin ([1]; 2.0 h): 0.21 % dose/g
Tissue uptake, Spleen ([1]; 2.0 h): 0.16 % dose/g
Tissue uptake, Stomach ([1]; 2.0 h): 0.33 % dose/g
Tissue uptake, Tumor ([1]; 2.0 h): 1.87 % dose/g
Tissue uptake, Uterus ([1]; 2.0 h): 0.32 % dose/g
tumor enrichment ([1]; F9 teratocarcinoma, 1 h after intravenous administration): 1.75 % ID/g
maximal tumor enrichment ([1]; F9 teratocarcinoma, after intravenous injection (15 min)): 2.90 % ID/g
tumor cell uptake [2]: surprisingly high uptake
